Reference: patent US20200216439A1, “HETERO-1,5,6,7-TETRAHYDRO-4H-INDOL-4-ONES” (BAYER PHARMA AKTIENGESELLSCHAFT, priority 2015, published 2020)

Molecular target: T1, catalytic domain of human Bub1 (amino acids 704-1085) (Homo sapiens, UniProt O43683)
T1 construct: catalytic domain of human Bub1 (amino acids 704-1085); His6 (N); made in house; host or cells: Hi5 insect cells
Assay: Bub1 kinase assay (TR-FRET)
Type: biochemical
Details: TR-FRET; ATP 10 μM, peptide substrate 1 μM; 60 min at 22° C.; average or median if tested more than once; read-out: Inhibition of Bub1 kinase IC50
Outline: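 Human Bub1 catalytic domain (704-1085, His6-tagged, Hi5-expressed, ~200 ng/mL) preincubated with compound 15 min at 22 °C, then reacted 60 min at 22 °C with 10 μM ATP and 1 μM biotinylated peptide substrate, pH 7.5. EDTA stop; TR-FRET 665/620 ratio; IC50 from 4-parameter fit, 11 concentrations in duplicate.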

T1 sequence (O43683 704-1085): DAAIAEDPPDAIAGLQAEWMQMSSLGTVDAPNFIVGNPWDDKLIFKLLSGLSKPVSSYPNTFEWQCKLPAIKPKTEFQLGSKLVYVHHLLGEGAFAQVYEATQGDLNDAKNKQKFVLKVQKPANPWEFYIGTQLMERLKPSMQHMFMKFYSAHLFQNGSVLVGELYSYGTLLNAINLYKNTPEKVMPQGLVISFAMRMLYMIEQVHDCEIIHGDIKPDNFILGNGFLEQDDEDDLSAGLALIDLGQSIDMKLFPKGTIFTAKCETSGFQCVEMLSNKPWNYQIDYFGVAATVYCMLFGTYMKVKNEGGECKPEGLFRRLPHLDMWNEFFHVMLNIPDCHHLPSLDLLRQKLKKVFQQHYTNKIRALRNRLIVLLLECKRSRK

Structure (SMILES)	IC50 [nM]
COc1cnccc1-c1[nH]c2c(c1Nc1ccccc1)C(=O)CN(S(=O)(=O)C(F)F)C2 [Example 110, 6-[(Difluoromethyl)sulfonyl]-2-(3-methoxypyridin-4-yl)-3-(phenylamino)-1,5,6,7-tetrahydro-4H-pyrrolo[2,3-c]pyridin-4-one]	6
Cc1nccc(-c2[nH]c3c(c2Nc2ccccc2)C(=O)CNC3)n1 [Example 16, 2-(2-Methylpyrimidin-4-yl)-3-(phenylamino)-1,5,6,7-tetrahydro-4H-pyrrolo[2,3-c]pyridin-4-one]	949
COCCOCCNC(=O)N1CC(=O)c2c([nH]c(-c3ccncc3)c2Nc2ccccc2)C1 [Example 90, N-[2-(2-Methoxyethoxy)ethyl]-4-oxo-3-(phenylamino)-2-(pyridin-4-yl)-1,4,5,7-tetrahydro-6H-pyrrolo[2,3-c]pyridine-6-carboxamide]	21
CC(C)(C)OC(=O)N1CC(=O)c2c([nH]c(-c3ccnc(N)c3)c2Nc2ccc(F)cc2)C1 [Example 296, tert-Butyl 2-(2-aminopyridin-4-yl)-3-[(4-fluorophenyl)amino]-4-oxo-1,4,5,7-tetrahydro-6H-pyrrolo[2,3-c]pyridine-6-carboxylate]	172
COc1cnccc1-c1[nH]c2c(c1Nc1ccccc1)C(=O)CN(C(=O)C1CC1)C2 [Example 108, 6-(Cyclopropylcarbonyl)-2-(3-methoxypyridin-4-yl)-3-(phenylamino)-1,5,6,7-tetrahydro-4H-pyrrolo[2,3-c]pyridin-4-one]	8
CC(=O)Nc1cc(-c2[nH]c3c(c2Nc2ccccc2)C(=O)CN(C(=O)c2ccccn2)C3)ccn1 [Example 114, N-{4-[4-Oxo-3-(phenylamino)-6-(pyridin-2-ylcarbonyl)-4,5,6,7-tetrahydro-1H-pyrrolo[2,3-c]pyridin-2-yl]pyridin-2-yl}acetamide]	63
CN(C)S(=O)(=O)N1CC(=O)c2c([nH]c(-c3ccncc3OCC(F)F)c2Nc2ccccc2)C1 [Example 281, 3-Anilino-2-[3-(2,2-difluoroethoxy)pyridin-4-yl]-N,N-dimethyl-4-oxo-1,4,5,7-tetrahydro-6H-pyrrolo[2,3-c]pyridine-6-sulfonamide]	10
O=C1CNCc2[nH]c(-c3ccncc3OCC(F)(F)F)c(Nc3ccccc3)c21 [Example 225, 3-Anilino-2-[3-(2,2,2-trifluoroethoxy)pyridin-4-yl]-1,5,6,7-tetrahydro-4H-pyrrolo[2,3-c]pyridin-4-one]	1020
CC(C)(C)OC(=O)N1CC(=O)c2c([nH]c(-c3ccnc(NC(=O)[C@@H]4C[C@@H]4F)c3)c2Nc2ccccc2)C1 (relative stereo) [Example 120, tert-Butyl 2-[2-({[rel-(1S,2S)-2-fluorocyclopropyl]carbonyl}amino)pyridin-4-yl]-4-oxo-3-(phenylamino)-1,4,5,7-tetrahydro-6H-pyrrolo[2,3-c]pyridine-6-carboxylate]	9
COc1cc(C(=O)Nc2cc(-c3[nH]c4c(c3Nc3ccccc3)C(=O)CN(C(C)=O)C4)ccn2)ccc1F [Example 258]	10
CN(C)CCOc1cnccc1-c1[nH]c2c(c1Nc1ccccc1)C(=O)CNC2 [Example 277, 2-3-[2-(Dimethylamino)ethoxy]pyridin-4-yl-3-(phenylamino)-1,5,6,7-tetrahydro-4H-pyrrolo[2,3-c]pyridin-4-one]	102
CC(=O)N1CC(=O)c2c([nH]c(-c3ccncc3OCC3CC3)c2Nc2ccccc2)C1 [Example 231, 6-Acetyl-2-[3-(cyclopropylmethoxy)pyridin-4-yl]-3-(phenylamino)-1,5,6,7-tetrahydro-4H-pyrrolo[2,3-c]pyridin-4-one]	40
O=C1CN(S(=O)(=O)C(F)F)Cc2[nH]c(-c3ccncc3)c(Nc3ccccc3)c21 [Example 68, 6-[(Difluoromethyl)sulfonyl]-3-(phenylamino)-2-(pyridin-4-yl)-1,5,6,7-tetrahydro-4H-pyrrolo[2,3-c]pyridin-4-one]	5
CC(C)(C)COC(=O)N1CC(=O)c2c([nH]c(-c3ccncc3)c2Nc2ccccc2)C1 [Example 78, 2,2-Dimethylpropyl 4-oxo-3-(phenylamino)-2-(pyridin-4-yl)-1,4,5,7-tetrahydro-6H-pyrrolo[2,3-c]pyridine-6-carboxylate]	73
CC(=O)Nc1cc(-c2[nH]c3c(c2Nc2ccccc2)C(=O)CN(C(=O)c2cocn2)C3)ccn1 [Example 195, N-{4-[3-Anilino-6(1,3-oxazol-4-ylcarbonyl)-4-oxo-4,5,6,7-tetrahydro-1H-pyrrolo[2,3-c]pyridin-2-yl]pyridin-2-yl}acetamide]	24
COc1ccc(C(=O)Nc2cc(-c3[nH]c4c(c3Nc3ccccc3)C(=O)CNC4)ccn2)cc1F [Example 284, 3-Fluoro-4-methoxy-N-4-[4-oxo-3-(phenylamino)-4,5,6,7-tetrahydro-1H-pyrrolo[2,3-c]pyridin-2-yl]pyridin-2-ylbenzamide]	52
CC(C)C(=O)N1CC(=O)c2c([nH]c(-c3ccncc3)c2Nc2ccccc2)C1 [Example 17]	6
O=C1CN(S(=O)(=O)CCO)Cc2[nH]c(-c3ccncc3)c(Nc3ccccc3)c21 [Example 123, 3-Anilino-6-[(2-hydroxyethyl)sulfonyl]-2-(pyridin-4-yl)-1,5,6,7-tetrahydro-4H-pyrrolo[2,3-c]pyridin-4-one]	3
CN(C)C(=O)N1CC(=O)c2c([nH]c(-c3ccnc(NC(=O)[C@@H]4C[C@@H]4F)c3)c2Nc2ccccc2)C1 [Example 207, 2-[2-([(1S,2S)-2-Fluorocyclopropyl]carbonylamino)pyridin-4-yl]-N,N-dimethyl-4-oxo-3-(phenylamino)-1,4,5,7-tetrahydro-6H-pyrrolo[2,3-c]pyridine-6-carboxamide]	3
CS(=O)(=O)N1CC(=O)c2c([nH]c(-c3ccncc3OCC(F)F)c2Nc2ccccc2)C1 [Example 232, 3-Anilino-2-[3-(2,2-difluoroethoxy)pyridin-4-yl]-6-(methylsulfonyl)-1,5,6,7-tetrahydro-4H-pyrrolo[2,3-c]pyridin-4-one]	12

Next, values leading:

IC50 [nM]	Structure (SMILES)
4	CC(=O)Nc1cc(-c2[nH]c3c(c2Nc2ccccc2)C(=O)CN(S(=O)(=O)CCC(F)(F)F)C3)ccn1 [Example 182, N-(4-{3-Anilino-4-oxo-6-[(3,3,3-trifluoropropyl)sulfonyl]-4,5,6,7-tetrahydro-1H-pyrrolo[2,3-c]pyridin-2-yl}pyridin-2-yl)acetamide]
7	COC(=O)N1CC(=O)c2c([nH]c(-c3ccnc(NC(=O)[C@H]4C[C@H]4F)c3)c2Nc2ccccc2)C1 [Example 141, Methyl 3-anilino-2-[2-({[(1R,2R)-2-fluorocyclopropyl]carbonyl}amino)pyridin-4-yl]-4-oxo-1,4,5,7-tetrahydro-6H-pyrrolo[2,3-c]pyridine-6-carboxylate]
98	O=C(Nc1cc(-c2[nH]c3c(c2Nc2ccccc2)C(=O)COC3)ccn1)NC1CC1 [Example 55, 1-Cyclopropyl-3-{4-[4-oxo-3-(phenylamino)-1,4,5,7-tetrahydropyrano[3,4-b]pyrrol-2-yl]pyridin-2-yl}urea]
3	COC(=O)N1CC(=O)c2c([nH]c(-c3ccnc(NC(=O)[C@@H]4C[C@@H]4F)c3)c2Nc2ccccc2)C1 [Example 205, Methyl 2-[2-([(1S,2S)-2-fluorocyclopropyl]carbonylamino)pyridin-4-yl]-4-oxo-3-(phenylamino)-1,4,5,7-tetrahydro-6H-pyrrolo[2,3-c]pyridine-6-carboxylate]
76	O=C1CNCc2[nH]c(-c3ccnc(NC(=O)[C@@H]4C[C@H]4F)c3)c(Nc3ccccc3)c21 (relative stereo) [Example 142, rel-(1S,2R)—N-[4-(3-Anilino-4-oxo-4,5,6,7-tetrahydro-1H-pyrrolo[2,3-c]pyridin-2-yl)pyridin-2-yl]-2-fluorocyclopropanecarboxamide]
1660	CC(=O)Nc1cc(-c2[nH]c3c(c2Nc2ccccc2)C(=O)CN(C(=O)OC(C)(C)C)C3)ccn1 [Example 23, tert-Butyl 2-[2-(acetylamino)pyridin-4-yl]4-oxo-3-(phenylamino)-1,4,5,7-tetrahydro-6H-pyrrolo[2,3-c]pyridine-6-carboxylate]
115	CS(=O)(=O)CC(=O)Nc1cc(-c2[nH]c3c(c2Nc2ccccc2)C(=O)COC3)ccn1 [Example 48, 2-(Methylsulfonyl)-N-{4-[4-oxo-3-(phenylamino)-1,4,5,7-tetrahydropyrano[3,4-b]pyrrol-2-yl]pyridin-2-yl}acetamide]
4	CS(=O)(=O)N1CC(=O)c2c([nH]c(-c3ccnc(NC(=O)c4cncs4)c3)c2Nc2ccccc2)C1 [Example 151]
5	CC(=O)Nc1cc(-c2[nH]c3c(c2Nc2ccccc2)C(=O)CN(C(=O)C(C)C)C3)ccn1 [Example 170, N-[4-(3-Anilino-6-isobutyryl-4-oxo-4,5,6,7-tetrahydro-1H-pyrrolo[2,3-c]pyridin-2-yl)pyridin-2-yl]acetamide]
20	COC(=O)N1CC(=O)c2c([nH]c(-c3ccnc(NC(=O)C(C)(C)F)c3)c2Nc2ccccc2)C1 [Example 144, Methyl 3-anilino-2-{2-[(2-fluoro-2-methylpropanoyl)amino]pyridin-4-yl}-4-oxo-1,4,5,7-tetrahydro-6H-pyrrolo[2,3-c]pyridine-6-carboxylate]
154	CC(=O)Nc1cc(-c2[nH]c3c(c2Nc2ccccc2)C(=O)CNC3)ccn1 [Example 24, N-{4-[4-Oxo-3-(phenylamino)-4,5,6,7-tetrahydro-1H-pyrrolo[2,3-c]pyridin-2-yl]pyridin-2-yl}acetamide]
31	COc1cc(C(=O)Nc2cc(-c3[nH]c4c(c3Nc3ccccc3)C(=O)COC4)ccn2)ccc1F [Example 140, N-[4-(3-Anilino-4-oxo-1,4,5,7-tetrahydropyrano[3,4-b]pyrrol-2-yl)pyridin-2-yl]-4-fluoro-3-methoxybenzamide]
